According to ChEMBL document CHEMBL1201862, “PubChem BioAssay data set” (2004):
The source made the active and inactive calls.

Tested on: not listed separately
Assay: non-specific 3'UTR reporter inhibition in Clone20-Shn3RL – cell-based, Renilla luciferase, cherry-picked, counter-screen for Shn3 inhibitor project, dose response (AID 624133)
Assay type: functional
Settings: not given

| Compound | AC50 |
| --- | --- |
| Oc1cc(-c2ccncc2)cc2cccnc12 | 3.51 µM (active) |

Target: Nonstructural protein 1 (Influenza A virus, UniProt Q194T2)
Sequence (Q194T2 whole entry): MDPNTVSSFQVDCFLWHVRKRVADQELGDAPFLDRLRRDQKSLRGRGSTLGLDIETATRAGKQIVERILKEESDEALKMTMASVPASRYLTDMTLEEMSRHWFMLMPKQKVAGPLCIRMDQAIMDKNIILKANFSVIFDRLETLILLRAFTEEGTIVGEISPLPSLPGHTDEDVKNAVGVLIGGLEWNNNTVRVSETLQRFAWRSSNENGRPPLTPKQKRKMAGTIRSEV
Assay: not given
Assay type: functional, Influenza A virus (A/California/07/2009(H1N1))
Settings: not given

| Compound | IC50 |
| --- | --- |
| Oc1cc(-c2ccncc2)cc2cccnc12 | 11.9 µM (active) |

Tested on: not listed separately
Assay: fluconazole-exposed Candida albicans growth modulators – fluorescence, retest, confirmation (AID 2467)
Assay type: functional, cell-based
Settings: not given

| Compound | EC50 |
| --- | --- |
| O=C(CCS(=O)(=O)c1ccccc1)Nc1nc2cc3c(cc2s1)OCCO3 | 1.75 µM (active) |
| CC1CN(C(S)=Nc2cccc([N+](=O)[O-])c2)CC(C)O1 (configuration not stated) | > 38 µM (not active) |
| CC1=C(C(N)=O)C(c2ccc(C)o2)C(C(N)=O)=C(C)N1 | > 38 µM (not active) |
| CCn1c(NC(=O)c2cccs2)nc2ccccc21 | 1.43 µM (active) |
| COc1ccc(NC(=O)CNC(=O)c2nn(-c3ccc(OC)cc3OC)c(=O)c3ccccc23)c(OC)c1 | 1.55 µM (active) |
| Cc1cc(/C=N/NC(N)=S)c(C)n1-c1cccc(Cl)c1 | 3.69 µM (active) |

Target: T1, Polyadenylate-binding protein 1 (Homo sapiens, UniProt P11940)
T1 sequence (P11940 whole entry, the tested form may be a part): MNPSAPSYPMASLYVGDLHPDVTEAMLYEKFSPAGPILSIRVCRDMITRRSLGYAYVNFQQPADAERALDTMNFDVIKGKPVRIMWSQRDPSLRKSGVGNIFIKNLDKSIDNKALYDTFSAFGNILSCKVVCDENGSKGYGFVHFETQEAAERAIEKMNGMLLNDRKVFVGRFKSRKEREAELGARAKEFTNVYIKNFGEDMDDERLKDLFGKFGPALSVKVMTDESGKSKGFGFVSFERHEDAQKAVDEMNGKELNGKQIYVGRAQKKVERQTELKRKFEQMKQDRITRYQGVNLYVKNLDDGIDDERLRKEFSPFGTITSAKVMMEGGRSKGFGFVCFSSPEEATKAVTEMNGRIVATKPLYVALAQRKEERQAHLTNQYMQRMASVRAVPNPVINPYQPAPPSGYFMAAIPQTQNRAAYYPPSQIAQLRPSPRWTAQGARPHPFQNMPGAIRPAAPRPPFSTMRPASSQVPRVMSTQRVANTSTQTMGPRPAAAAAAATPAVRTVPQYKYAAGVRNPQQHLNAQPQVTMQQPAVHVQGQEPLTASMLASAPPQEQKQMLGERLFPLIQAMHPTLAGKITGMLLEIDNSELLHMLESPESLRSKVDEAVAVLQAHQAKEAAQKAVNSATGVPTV
Assay: MLLE domain peptide-binding blockers, IC50 – biochemical, fluorescence polarization, FITC-PAM2 peptide, dose response (AID 602259)
Assay type: functional
Settings: read-out: IC50_Mean

| Compound | IC50 |
| --- | --- |
| CCOC(=O)C1CCN(C(=O)COC(=O)CSc2ccc([N+](=O)[O-])cc2)CC1 | > 66 µM (inactive) |
| CCC(SCC(=O)OC)C(=O)Nc1nnc(C(C)C)s1 (configuration not stated) | > 66 µM (inactive) |
| O=C(NC(=S)N1CCCC1)c1ccccc1F | > 66 µM (inactive) |
| CCOc1ccc(NC(=S)NC(=O)c2c(Cl)c(C)nn2C)c([N+](=O)[O-])c1 | > 66 µM (inactive) |
| COCCN=C(S)N(CCO)Cc1cc2cc3c(cc2nc1O)OCCO3 | > 66 µM (inactive) |
| N#C/C(=N\Nc1ccc(S(=O)(=O)N2CCCCCC2)cc1)C(N)=S | > 66 µM (inactive) |
| COc1cc2ccccc2cc1C(=O)NC(=S)Nc1cccc(C(=O)O)c1 | > 66 µM (inactive) |
| Cn1nnc(NC(=S)NC(=O)c2cccc3c(Br)cccc23)n1 | > 66 µM (inactive) |
| O=C(Cc1ccc(F)cc1)N1CCN=C1SCc1ccc([N+](=O)[O-])cc1 | > 66 µM (inactive) |

Target: T1, Polyadenylate-binding protein 1
Assay: MLLE binding blockers, Cy5 peptide tracer – biochemical, fluorescence polarization, Cy5-PAM2 peptide, secondary, miRNA deadenylation inhibitor project, dose response (AID 602260)
Assay type: functional
Settings: read-out: IC50_Mean

| Compound | IC50 |
| --- | --- |
| CCOC(=O)C1CCN(C(=O)COC(=O)CSc2ccc([N+](=O)[O-])cc2)CC1 | > 66 µM (inactive) |
| CCC(SCC(=O)OC)C(=O)Nc1nnc(C(C)C)s1 (configuration not stated) | > 66 µM (inactive) |
| O=C(NC(=S)N1CCCC1)c1ccccc1F | > 66 µM (inactive) |
| CCOc1ccc(NC(=S)NC(=O)c2c(Cl)c(C)nn2C)c([N+](=O)[O-])c1 | > 66 µM (inactive) |
| COCCN=C(S)N(CCO)Cc1cc2cc3c(cc2nc1O)OCCO3 | > 66 µM (inactive) |
| N#C/C(=N\Nc1ccc(S(=O)(=O)N2CCCCCC2)cc1)C(N)=S | > 66 µM (inactive) |
| COc1cc2ccccc2cc1C(=O)NC(=S)Nc1cccc(C(=O)O)c1 | > 66 µM (inactive) |
| Cn1nnc(NC(=S)NC(=O)c2cccc3c(Br)cccc23)n1 | > 66 µM (inactive) |
| O=C(Cc1ccc(F)cc1)N1CCN=C1SCc1ccc([N+](=O)[O-])cc1 | > 66 µM (inactive) |

Tested on: not listed separately
Assay: reduction of Shn3 3'UTR-driven luciferase in osteoblasts – cell-based, Clone20 osteoblasts, firefly luciferase, cherry-picked, dose response (AID 624132);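 also: firefly luciferase luminescence from reporter carrying the Shn3 3'UTR in osteoblasts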
Assay type: functional
Settings: not given

| Compound | AC50 |
| --- | --- |
| Oc1cc(-c2ccncc2)cc2cccnc12 | 5.4 µM (active) |

Tested on: not listed separately
Assay: Trypanosoma cruzi growth suppression in host cells – NIH3T3 host cells, beta-gal luminescence, confirmation (AID 2044);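 also: intracellular parasites grown in NIH/3T3 mouse fibroblasts as host cells; luminescent beta-galactosidase reporter signal from transgenic T. cruzi replicating inside host cells; inhibitors lower the luminescence signal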
Assay type: functional, cell-based
Settings: not given

| Compound | EC50 |
| --- | --- |
| Cc1cc(/C=N/NC(N)=S)c(C)n1-c1cccc(Cl)c1 | 0.984 µM (active) |

Tested on: not listed separately
Assay: NIH-3T3 fibroblast cytotoxicity, dose response, cytotoxicity control, cell-based, fluorescence, Alamar Blue, secondary assay (AID 2327);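 also: NIH-3T3 mouse fibroblasts cultured with fluconazole at 8 µg/mL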
Assay type: functional
Settings: not given

| Compound | EC50 |
| --- | --- |
| O=C(CCS(=O)(=O)c1ccccc1)Nc1nc2cc3c(cc2s1)OCCO3 | > 160 µM (inactive) |
| CC1CN(C(S)=Nc2cccc([N+](=O)[O-])c2)CC(C)O1 (configuration not stated) | > 160 µM (inactive) |
| CC1=C(C(N)=O)C(c2ccc(C)o2)C(C(N)=O)=C(C)N1 | > 160 µM (inactive) |
| CCn1c(NC(=O)c2cccs2)nc2ccccc21 | 48.8 µM (active) |
| COc1ccc(NC(=O)CNC(=O)c2nn(-c3ccc(OC)cc3OC)c(=O)c3ccccc23)c(OC)c1 | 132 µM (active) |
| Cc1cc(/C=N/NC(N)=S)c(C)n1-c1cccc(Cl)c1 | > 150 µM (inconclusive) |

Target: T2, Streptokinase A (Streptococcus pyogenes serotype M1, UniProt P10520)
T2 sequence (P10520 whole entry): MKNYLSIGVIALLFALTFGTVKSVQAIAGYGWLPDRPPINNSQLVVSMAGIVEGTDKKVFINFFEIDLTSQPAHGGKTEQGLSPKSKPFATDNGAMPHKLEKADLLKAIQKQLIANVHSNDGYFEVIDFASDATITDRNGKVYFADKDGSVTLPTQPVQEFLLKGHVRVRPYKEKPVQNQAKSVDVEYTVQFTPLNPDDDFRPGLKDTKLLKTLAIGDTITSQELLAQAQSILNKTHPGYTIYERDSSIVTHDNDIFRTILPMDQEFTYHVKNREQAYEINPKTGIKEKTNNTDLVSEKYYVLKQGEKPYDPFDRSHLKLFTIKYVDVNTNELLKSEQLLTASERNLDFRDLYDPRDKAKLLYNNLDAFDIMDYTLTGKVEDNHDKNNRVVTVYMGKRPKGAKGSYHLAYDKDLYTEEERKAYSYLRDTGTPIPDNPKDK
Assay: viability-normalized secreted streptokinase activity reduction – plasminogen activation absorbance, OD405, dose response (AID 1914);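 also: secreted streptokinase activity via plasminogen activation per viability signal from cell pellet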
Assay type: functional, Streptococcus pyogenes M1 GAS
Settings: not given

| Compound | EC50 |
| --- | --- |
| O=C(CCS(=O)(=O)c1ccccc1)Nc1nc2cc3c(cc2s1)OCCO3 | > 150 µM (not active) |
| N#C/C(=N\Nc1ccc(S(=O)(=O)N2CCCCCC2)cc1)C(N)=S | > 150 µM (not active) |

Tested on: not listed separately
Assay: loss of viability in HepG2 cells – cell-based, CellTiter-Glo, cherry-picked, cytotoxicity control for Shn3 inhibitor project, dose response (AID 624134)
Assay type: functional
Settings: not given

| Compound | AC50 |
| --- | --- |
| Oc1cc(-c2ccncc2)cc2cccnc12 | 10.9 µM (active) |

Tested on: Streptococcus
Assay: GAS UMAA2166 growth inhibition – luminescence, BacTiterGlo, counter-screen for streptokinase expression inhibitor project, dose response (AID 1915);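 also: potency for reduction of bacterial viability or growth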
Assay type: functional, organism-based
Settings: not given

| Compound | EC50 |
| --- | --- |
| O=C(CCS(=O)(=O)c1ccccc1)Nc1nc2cc3c(cc2s1)OCCO3 | > 150 µM (not active) |
| N#C/C(=N\Nc1ccc(S(=O)(=O)N2CCCCCC2)cc1)C(N)=S | > 150 µM (not active) |

Tested on: Streptococcus sp. 'group A'
Assay: Streptococcus pyogenes SK(-)GAS viability under kanamycin – luminescence, BacTiterGlo, confirmation, counter-screen for streptokinase expression inhibitor project, dose response (AID 1900)
Assay type: functional, organism-based
Settings: not given

| Compound | EC50 |
| --- | --- |
| O=C(CCS(=O)(=O)c1ccccc1)Nc1nc2cc3c(cc2s1)OCCO3 | 79.6 µM (active) |
| N#C/C(=N\Nc1ccc(S(=O)(=O)N2CCCCCC2)cc1)C(N)=S | 22.7 µM (active) |

Tested on: not listed separately
Assay: NIH3T3 cell viability loss – ATP luminescence, mouse fibroblasts, counter-screen, dose response (AID 2010);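 also: cells exposed to compound for about 90 hours before reading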
Assay type: functional, cell-based
Settings: not given

| Compound | EC50 |
| --- | --- |
| Cc1cc(/C=N/NC(N)=S)c(C)n1-c1cccc(Cl)c1 | > 60 µM (not active) |
